The text below walks through data of PMC12127288, “Engineering of antimicrobial peptide Brevinin-1pl: arginine, lysine, and histidine substitutions enhance antimicrobial-anticancer efficacy with reduced cytotoxicity” (Frontiers in Chemistry, 2025).

Molecules are shown by their SMILES. Values after ≈ are worked out from the molar mass of the structure shown. Positions of bridges follow the written chain, without caps; N, C: chain ends. Residues, ends and D or L forms follow the SMILES beside them.

The subject of one data set is E. faecium 12697. Format: cell-based, Enterococcus faecalis NCTC 12697 (E. faecium 12697). To be noted: 12697, 18 h. How it is done: (§1) The minimal inhibitory concentration (MIC) and minimal bactericidal concentration (MBC) values of the peptides were determined by established protocols to evaluate their antimicrobial activities ([Lin et al., 2021]). The MIC value was the lowest concentration of a peptide that inhibits visible bacterial growth after incubating 18 h (CLSI standard). Once the MIC values were determined, an aliquot from the bacterial culture exposed to the peptide at or above its MIC value was inoculated on a Mueller Hinton agar (MHA) and was incubated at 37 for 18 h (CLSI standard). The MBC value was the lowest concentration of a peptide that kills 99.9% of bacteria. Antimicrobial activities of synthetic peptides were assessed by determination of MIC and MBC values using eight kinds of bacteria and yeast: Gram-positive bacteria, Staphylococcus aureus ATCC 6538 (S. aureus 6538), Methicillin-resistant Staphylococcus aureus NCTC 12493 (MRSA 12493), and Enterococcus faecalis NCTC 12697 (E. faecium 12697); Gram-negative bacteria, Escherichia coli ATCC 8739 (E. coli 8739), Pseudomonas aeruginosa ATCC CRM 9027 (P. aeruginosa 9027), Klebsiella pneumoniae ATCC 43816 (K. pneumoniae 43816), and Acinetobacter baumannii BAA 747 (A. baumannii 747); and pathogenic yeast, Candida albicans ATCC 10231 (C. albicans 10231).

Data set [1] has as its system Pseudomonas aeruginosa ATCC CRM 9027. Format: cell-based. To be noted: ATCC CRM 9027, 18 h. How it is done:
as §1

The subject of data set [2] is Methicillin-resistant Staphylococcus aureus NCTC 12493. It counts as cell-based. To be noted: NCTC 12493, 18 h. How it is done: as §1
The test system of data set [3] is Acinetobacter baumannii BAA 747. Format: cell-based. To be noted: BAA 747, 18 h. The protocol: as §1
The test system of data set [4] is Staphylococcus aureus ATCC 6538. It counts as cell-based. As to conditions: ATCC 6538, 18 h. How it is done: as §1
The subject of data set [5] is Klebsiella pneumoniae ATCC 43816. It counts as cell-based. To be noted: ATCC 43816, 18 h. The protocol: as §1
In data set [6] the test system is Escherichia coli ATCC 8739. It counts as cell-based. As to conditions: ATCC 8739, 18 h. How it is done: as §1
Data set [7] deals with Candida albicans ATCC 10231. It counts as cell-based. To be noted: ATCC 10231, 18 h. How it is done: as §1
The test system of another data set is horse erythrocytes. Format: cell-based. The protocol: The hemolytic activity of the peptides was assessed using horse erythrocytes. Horse erythrocytes were selected due to their similarity to human erythrocytes in membrane composition and widespread use in AMP studies for standardization. Following a previously established protocol ([Gao et al., 2016]). Peptide solutions with final concentrations ranging from 1 µM to 128 µM were incubated with 2% horse erythrocytes at 37°C for 2 h. Triton X-100 (1%) served as the positive control, while sterile PBS was used as the blank control. After that, the peptide-horse erythrocytes mixture was centrifuged at 930 g for 10 min, and the absorbance at 570 nm of the supernatant was measured. The hemolysis rate was calculated using the formal: Percentage Hemolysis = (Absorbance of sample − Absorbance of blank)/(Absorbance of Positive- Absorbance of Blank) × 100%

The test system of a further data set is HaCaT cells. It counts as cell-based, human. The protocol: Lung cancer cell line, H838 (ATCC, United States), breast cancer cell line, MCF7 (ATCC, United States), and human immortalized keratinocytes, HaCat (Caltag Medsystems, United Kingdom), were used in this experiment to test the anti-proliferation activity of peptides brevine-1pl and its four analogues. H838 cells were maintained in RPMI-1640 medium (Gibco, United Kingdom), whereas MCF-7 and HaCaT cells were cultured in DMEM medium (Gibco, United Kingdom), supplemented with 10% (v/v) fetal bovine serum (FBS, Gibco, United Kingdom) and 1% (v/v) penicillin-streptomycin (PS, Gibco, United Kingdom). Cells were seeded in 96-well plates at densities of 8,000 cells/well for H838 and MCF-7 and 10,000 cells/well for HaCaT, followed by overnight incubation at 37°C under 5% CO2 to allow adherence. Following attachment, cells were exposed to peptide solutions at final concentrations ranging from 10^–4 M to 10^–9 M. After 22 h of treatment, 0.5 mg/ml MTT solution was added to each well and incubated at 37°C for 4 h. The medium was then aspirated, and 100 μl of DMSO was added to solubilize formazan crystals. Plates were agitated for 15 min in a shaking incubator, and absorbance was measured at 570 nm using a Synergy HT microplate reader. […] Cell viability (%) was calculated using the formula: Viability (%) = (ODtreated − ODblank)/(ODcontrol− ODblank) *100. […]

By MIC is commonly meant the lowest concentration found to suppress growth. For the molecule `CC[C@H](C)[C@H](NC(=O)[C@H](Cc1c[nH]cn1)NC(=O)[C@H](Cc1c[nH]cn1)NC(=O)[C@H](CC(C)C)NC(=O)[C@@H](NC(=O)[C@H](Cc1c[nH]cn1)NC(=O)[C@H](C)NC(=O)[C@H](C)NC(=O)[C@@H](NC(=O)CNC(=O)[C@H](C)NC(=O)[C@@H](NC(=O)[C@@H](NC(=O)[C@@H]1CCCN1C(=O)[C@H](Cc1ccccc1)NC(=O)[C@@H](N)Cc1ccccc1)[C@@H](C)CC)C(C)C)C(C)C)C(C)C)C(=O)N[C@@H](Cc1ccccc1)C(=O)N[C@H]1CSSC[C@@H](C(=O)O)NC(=O)[C@H](CCCCN)NC(=O)[C@H](CCCCN)NC(=O)[C@H](CO)NC(=O)[C@H]([C@@H](C)CC)NC(=O)[C@H]([C@@H](C)O)NC1=O` [brevinin-1pl-3H] (H-FFPIVAGVAAHVLHHIFCTISKKC-OH; disulfide 18-24), the MBC is 32 µM (≈ 84.4 µg/mL) in the data set with E. faecium 12697; 64 µM (≈ 169 µg/mL) in data set [1]; 4/4 µM in data set [2]; above 128 µM in [3]; 8 µM (≈ 21.1 µg/mL) in data set [4]; 64 µM (≈ 169 µg/mL) in data set [5]. Also, the figures for the MBC in [6] and in data set [7] were 32 µM (≈ 84.4 µg/mL) and above 128 µM, respectively. Further, the MIC in the data set with E. faecium 12697 was 16 µM (≈ 42.2 µg/mL); in [1], 64 µM (≈ 169 µg/mL); in [3] it was above 128 µM; in data set [4] it was 8 µM (≈ 21.1 µg/mL); in [5] it was 32 µM (≈ 84.4 µg/mL); in data set [6], 32 µM (≈ 84.4 µg/mL). This molecule also yielded an MIC in [7] of 64 µM (≈ 169 µg/mL). Also, the “Hemolytic activity at 16 μM (in words)” value in the data set on horse erythrocytes was “low hemolytic activity”. In addition, the “Cytotoxicity toward normal HaCaT cells (in words)” value with HaCaT cells is reported as “low cytotoxicity”.
